Experiment [1] concerns P. falciparum 3D7. In words: DAPI stain fluorescent high content imaging assay, P. falciparum 3D7 (confirmatory screen, Avery). The following applies: Plasmodium falciparum; for inhibition of growth at 5 µM: 3D7, read-out: percent_inh @ 5 uM; for EC50: 3D7, read-out: EC50_nM; for inhibition of growth at 2 µM: 3D7, read-out: percent_inh @ 2 uM.
Experiment [2] has as its system P. falciparum 3D7. More on the design: method as in ChEMBL-NTD. To be noted: ref ChEMBL-NTD, cited from earlier work.
Setting [3] is: original screening data, source (GSK, GNF, StJude), several values separated by ';' in order of sources.
The mark [4] stands for this setting: values follow the order of the source (GNF; GSK; StJude).

Where two headings read alike, the source gives them in different places.

Consider `Oc1c(CN2CCN(c3ccccc3F)CC2)cc(Br)c2cccnc12` [MMV000760], for which the inhibition of growth at 5 µM in the experiment with P. falciparum 3D7 [1] is 91%. Besides, in the experiment on P. falciparum 3D7 [2] (setting [3]), the EC50 was 3760 nM.

Regarding `CCCOCc1cc(CN2CCN(c3cccc(Cl)c3)CC2)c(O)c2ncccc12` [MMV000787], in the experiment on P. falciparum 3D7 [1], the EC50 came out at 407 nM and the inhibition of growth at 5 µM is 97%. The EC50 in the experiment on P. falciparum 3D7 [2] (source StJude (SJ ids)) was 1100 nM.

As to `CC(C)OCc1cc(CN2CCN(c3cccc(Cl)c3)CC2)c(O)c2ncccc12` [MMV000788], the EC50 in the experiment with P. falciparum 3D7 [1] was 697 nM; with P. falciparum 3D7 [2] (source StJude), 941 nM. Besides, the inhibition of growth at 5 µM with P. falciparum 3D7 [1] came to 98%.

Take `OC(CNCc1ccccc1)Cn1c2ccccc2c2ccccc21` (stereo not drawn) [MMV000839]: the figures for the EC50 in the experiment on P. falciparum 3D7 [1] and with P. falciparum 3D7 [2] (source StJude (SJ ids)) were 1080 nM and 3760 nM, respectively. Besides, in the experiment on P. falciparum 3D7 [1], the inhibition of growth at 5 µM was determined as 95%.

Take `OC(CNC1CCCC1)Cn1c2ccccc2c2ccccc21` (stereo not drawn) [MMV000848]: in the experiment with P. falciparum 3D7 [1], the EC50 is 660 nM and the inhibition of growth at 5 µM is 97%. In addition, the EC50 in the experiment on P. falciparum 3D7 [2] (setting [3]) was 1080 nM.

As to `Cc1ccc(NC(=O)Nc2cccc(Cl)c2)cc1F` [MMV000911], in the experiment on P. falciparum 3D7 [1], the inhibition of growth at 5 µM was 52%. Besides, in the experiment on P. falciparum 3D7 [2] (setting [3]), the EC50 is 15000 nM.

Regarding `COc1ccc2c(c1OC)C(=O)N1c3ccccc3N=C(c3ccc(C)cc3)CC21` (stereo not drawn) [MMV000917], in the experiment with P. falciparum 3D7 [1], the EC50 was 1240 nM and the inhibition of growth at 5 µM was 93%. Also, the EC50 with P. falciparum 3D7 [2] (source StJude (SJ ids)) is 2530 nM.

For the compound `O=C1CC(O)(C(F)(F)C(F)(F)F)Oc2ccccc21` (stereo not drawn) [MMV000972], the inhibition of growth at 5 µM with P. falciparum 3D7 [1] stood at 95%. In the experiment on P. falciparum 3D7 [2] (setting [3]), the EC50 was 2570 nM.

Regarding `Cc1ccc(Nc2nc(NCCO)c3ccccc3n2)cc1C` [MMV001038], the EC50 in the experiment on P. falciparum 3D7 [1] is 428 nM; in the experiment on P. falciparum 3D7 [2] (source GNF (GNF-Pf id)), 175 nM; in the experiment with P. falciparum 3D7 [2] (source StJude (SJ id)) it was 843 nM.

With `OCCNc1nc(Nc2ccc(Cl)c(Cl)c2)nc2ccccc12` [MMV001041], the values for the EC50 in the experiment with P. falciparum 3D7 [1], in the experiment on P. falciparum 3D7 [2] (source GNF) and in the experiment on P. falciparum 3D7 [2] (source StJude) were 590 nM, 140 nM and 15000 nM, respectively. In the experiment on P. falciparum 3D7 [1], the inhibition of growth at 2 µM worked out at 94%.

For the compound `CC(C)c1ccc(CNCC(O)c2ccccc2)cc1` (stereo not drawn) [MMV001049], the EC50 is 1260 nM in the experiment with P. falciparum 3D7 [1] and 1350 nM with P. falciparum 3D7 [2] (setting [3]). Also, the inhibition of growth at 5 µM with P. falciparum 3D7 [1] is 96%.

Consider `CCOc1cccc2sc(N(Cc3cccnc3)C(=O)C3CCCCC3)nc12` [MMV001230], for which the inhibition of growth at 5 µM in the experiment with P. falciparum 3D7 [1] was 94%. In addition, the EC50 in the experiment with P. falciparum 3D7 [2] (source StJude) was 3040 nM.

In the case of `COc1ccc2sc(N(Cc3cccnc3)C(=O)c3ccc(C#N)cc3)nc2c1` [MMV001239], the inhibition of growth at 2 µM in the experiment on P. falciparum 3D7 [1] turned out to be 89%. Besides, the EC50 in the experiment on P. falciparum 3D7 [2] (setting [4]) is 15000 nM.

For `COc1ccc(C)c2sc(N(Cc3cccnc3)C(=O)c3ccc(C#N)cc3)nc12` [MMV001241], the inhibition of growth at 5 µM with P. falciparum 3D7 [1] was determined as 91%. For the same compound, the EC50 in the experiment with P. falciparum 3D7 [2] (source StJude (SJ ids)) is 15000 nM.

Turning to `CSc1ccccc1C(=O)Nc1nc(-c2ccccn2)cs1` [MMV001246], in the experiment with P. falciparum 3D7 [1], the EC50 was found to be 206 nM and the inhibition of growth at 5 µM was found to be 98%. Further, the EC50 in the experiment with P. falciparum 3D7 [2] (source StJude (SJ id)) was 6820 nM.

For the compound `CCCCc1ccc(NS(=O)(=O)c2cc3c4c(c2)CCN4C(=O)CC3)cc1` [MMV001255], in the experiment on P. falciparum 3D7 [1], the EC50 is 538 nM and the inhibition of growth at 5 µM worked out at 96%. Moreover, the EC50 in the experiment on P. falciparum 3D7 [2] (source StJude) is 15000 nM.

For `O=C(Nc1ccc(Br)cc1)Nc1cccc(Cl)c1` [MMV001318], the inhibition of growth at 5 µM in the experiment on P. falciparum 3D7 [1] came out at 94%. The EC50 in the experiment with P. falciparum 3D7 [2] (setting [3]) was 15000 nM.

For the compound `CC1CC(C)CN(C(=O)c2ccc(Cl)cc2Cl)C1` (stereo not drawn) [MMV001344], in the experiment on P. falciparum 3D7 [1], the EC50 was found to be 756 nM and the inhibition of growth at 5 µM came to 95%. Further, in the experiment with P. falciparum 3D7 [2] (setting [3]), the EC50 was 1320 nM.

With `CCN(CC)CCNc1ccnc2cc(Cl)ccc12` [MMV006087], the EC50 was 58.1 nM in the experiment on P. falciparum 3D7 [1] and 7.16 nM in the experiment on P. falciparum 3D7 [2] (source GNF (GNF-Pf id)).

Take `c1ccc(CNc2nc(Nc3ccccc3)nc3ccccc23)cc1` [MMV006169]: the EC50 was 776 nM in the experiment on P. falciparum 3D7 [1] and 158 nM in the experiment on P. falciparum 3D7 [2] (setting [4]). Further, the inhibition of growth at 2 µM in the experiment with P. falciparum 3D7 [1] was found to be 95%.

For `CN1CCN(c2ccc(Nc3c4ccccc4nc4ccccc34)cc2)CC1` [MMV006172], the results for the EC50 with P. falciparum 3D7 [1], with P. falciparum 3D7 [2] (source GNF (GNF-Pf id)) and in the experiment on P. falciparum 3D7 [2] (source GSK (TCMDC id)) were 142 nM, 56.7 nM and 645 nM, respectively. The inhibition of growth at 5 µM in the experiment on P. falciparum 3D7 [1] is 97%.

For the compound `O=C(NCc1ccco1)C1CCN(S(=O)(=O)c2ccc(Cl)cc2)CC1` [MMV006188], the EC50 in the experiment with P. falciparum 3D7 [1] was 890 nM; in the experiment with P. falciparum 3D7 [2] (source GNF), 514 nM. In addition, the inhibition of growth at 5 µM in the experiment with P. falciparum 3D7 [1] came out at 94%.

As to `Cc1cc(NCCN2CCCCC2)c2ccc3ccccc3c2n1` [MMV006203], the EC50 in the experiment with P. falciparum 3D7 [1] was 300 nM; in the experiment with P. falciparum 3D7 [2] (source GNF (GNF-Pf id)) it was 44.1 nM. Moreover, in the experiment on P. falciparum 3D7 [1], the inhibition of growth at 5 µM was 99%.

For the compound `CCOC(=O)c1cnc2c(C)cccc2c1Nc1ccc(C(C)=O)cc1` [MMV006250], in the experiment on P. falciparum 3D7 [1], the EC50 stood at 314 nM and the inhibition of growth at 5 µM is 94%. Further, the EC50 with P. falciparum 3D7 [2] (source GNF (GNF-Pf ids)) was 119 nM.

Take `CCc1c(C)c(=N)c2ccccc2n1C` [MMV006278]: in the experiment on P. falciparum 3D7 [1], the EC50 came out at 378 nM and the inhibition of growth at 5 µM amounted to 76%. The EC50 with P. falciparum 3D7 [2] (source GNF (GNF-Pf id)) was 701 nM.

Source of the values: article PMC3684613 (PLoS ONE, 2013).
